Laboratory results: the supplement of paper PMC11208160

Test: recombinant UMI read abundance after kanamycin selection (control-corrected) (log10(CPM+1)); higher = more efficient recombination; extreme values may be limits of the assay; sequences stand for … in AGTGCAGAGAAAATCGGCCAGTTTTCTCTGCCTGCAGTCCGCATGCCGTGGGACCCCTTGGGTTCTAACCTGTTGCCTAGATTTATGCAGCGGACTGCCTTTCTCCCAAAGTGATAAACCGG…AGGTTGGTTTCACT; site = the 11-nt donor
In short: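 For the IS621 bridge recombinase, a pooled Escherichia coli screen tested donor and donor-binding-loop pairs. Cells received the pair library together with a target plasmid encoding a fixed target and T7-inducible recombinase, then went onto IPTG (0.07 mM) plus kanamycin or unselected plates in duplicate. After PCR across the donor–target junction and sequencing, recombinant UMI counts were normalized to CPM, averaged, and scaled by control-derived factors. Each value is given as log10(CPM+1).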

Row | Sequence | recombinant UMI read abundance (log10)
1 | GTTCGAGCATGGACCGGTTTTCCCGGTAATCCGTATTTGCA (site GTCCGAGCTTG) | 1.29
2 | GTTCGAGCATGGACCGGTTTTCCCGGTAATCCGTATTTGCA (site GTGCGAGCTTG) | 0.215
3 | GTTCGAGCATGGACCGGTTTTCCCGGTAATCCGTATTTGCA (site GTTAGAGCTTG) | 0.651
4 | GTTCGAGCATGGACCGGTTTTCCCGGTAATCCGTATTTGCA (site GTTCAAGCTTG) | 1.8
5 | GTTCGAGCATGGACCGGTTTTCCCGGTAATCCGTATTTGCA (site GTTCCAGCTTG) | 0.541
6 | GTTCGAGCATGGACCGGTTTTCCCGGTAATCCGTATTTGCA (site GTTCGAACTTG) | 0.806
7 | GTTCGAGCATGGACCGGTTTTCCCGGTAATCCGTATTTGCA (site GTTCGACCTTG) | 0.0101
8 | GTTCGAGCATGGACCGGTTTTCCCGGTAATCCGTATTTGCA (site GTTCGAGCTAG) | 0
9 | GTTCGAGCATGGACCGGTTTTCCCGGTAATCCGTATTTGCA (site GTTCGAGCTCG) | 0.461
10 | GTTCGAGCATGGACCGGTTTTCCCGGTAATCCGTATTTGCA (site GTTCGAGCTGG) | 0.789
11 | GTTCGAGCATGGACCGGTTTTCCCGGTAATCCGTATTTGCA (site GTTCGAGCTTA) | 1.19
12 | GTTCGAGCATGGACCGGTTTTCCCGGTAATCCGTATTTGCA (site GTTCGAGCTTC) | 0.0558
13 | GTTCGAGCATGGACCGGTTTTCCCGGTAATCCGTATTTGCA (site GTTCGAGCTTG) | 2.44
14 | GTTCGAGCATGGACCGGTTTTCCCGGTAATCCGTATTTGCA (site GTTCGAGCTTT) | 0.391
15 | GTTCGAGCATGGACCGGTTTTCCCGGTAATCCGTATTTGCA (site GTTCGATCTTG) | 1.09
16 | GTTCGAGCATGGACCGGTTTTCCCGGTAATCCGTATTTGCA (site GTTCGCGCTTG) | 0.00631

Row | Sequence | recombinant UMI read abundance (log10)
17 | GTTCGAGCATGGACCGGTTTTCCCGGTAATCCGTATTTGCA (site GTTCGGGCTTG) | 1
18 | GTTCGAGCATGGACCGGTTTTCCCGGTAATCCGTATTTGCA (site GTTCGTGCTTG) | 0.477
19 | GTTCGAGCATGGACCGGTTTTCCCGGTAATCCGTATTTGCA (site GTTCTAGCTTG) | 0.494
20 | GTTCGAGCATGGACCGGTTTTCCCGGTAATCCGTATTTGCA (site GTTGGAGCTTG) | 0.345
21 | GTTCGAGCATGGACCGGTTTTCCCGGTAATCCGTATTTGCA (site GTTTGAGCTTG) | 0.607
22 | GTTCGAGCATGGACCGGTTTTCCCGGTAATCCGTATTTGCA (site TTTCGAGCTTG) | 0.829
23 | GTTCGAGCATGGACCGGTTTTCCCGGTAATCCGTATTTGCC (site GTTCGAGCTAG) | 0.379
24 | GTTCGAGCATGGACCGGTTTTCCCGGTAATCCGTATTTGCC (site GTTCGAGCTCG) | 0.00775
25 | GTTCGAGCATGGACCGGTTTTCCCGGTAATCCGTATTTGCC (site GTTCGAGCTGG) | 1.42
26 | GTTCGAGCATGGACCGGTTTTCCCGGTAATCCGTATTTGCC (site GTTCGAGCTTG) | 0.317
27 | GTTCGAGCATGGACCGGTTTTCCCGGTAATCCGTATTTGGG (site GTTCGAGCTCC) | 0.00765
28 | GTTCGGCCATGGACCGGTTTTCCCGGTAATCCGTATTTGGT (site GTTCGGCCTAC) | 0.00718
29 | GTTCTATCATGGACCGGTTTTCCCGGTAATCCGTATTTGTG (site GTTCTATCTCA) | 1.02
30 | GTTCTCACATGGACCGGTTTTCCCGGTAATCCGTATTTGGT (site GTTCTCACTAC) | 0.234
31 | GTTGCGGCATGGACCGGTTTTCCCGGTAATCCGTATTTGCT (site ATTGCGGCTAG) | 1.03
32 | GTTGCGGCATGGACCGGTTTTCCCGGTAATCCGTATTTGCT (site CTTGCGGCTAG) | 0.745
